According to patent US20070270421A1, “Novel pyridine Derivative and Pyrimidine Derivative (1)” (priority 2004, published 2007):

Molecular target: T1, HGFR (His6-HGFR cytoplasmic domain) (Homo sapiens, UniProt P08581)
T1 construct: made in house; host or cells: Spodoptera frugiperda Sf9 insect cells (baculovirus, pFastBac-HT)
Assay: Inhibitory activity against HGFR tyrosine kinase activity (HTRF)
Format: biochemical
Settings: biotin-poly(GT), ATP, 30° C. 10 min, read-out: IC50 (concentration necessary to inhibit HGFR kinase activity by 50%)
Source text: The cytoplasmic domain of HGFR (Genbank Accession No. J02958) is a 1.3 kb DNA fragment beginning with Lys974 and including a stop codon, and described by Park et al. (Proc. Natl. Acad. Sci. U.S.A. 84(18), 6379-6383, 1987). The DNA fragment was isolated from the human placental cDNA library (purchased from Clontech) by PCR (TaKaRa Ex Taq™ Kit, purchased from TaKaRa) using two kinds of primers (SEQ ID NO: 1, 5′-[…]-3′ and SEQ ID NO: 2, 5′-[…]-3′, purchased from Invitrogen). The DNA fragment was cloned into a baculovirus transplace vector (pFastBac™-HT (purchased from GIBCO BRL)) to produce a recombinant construct. The construct was transfected into insect cells (Spodoptera frugiperda 9 (Sf9)) to produce a solution of HGFR transfected baculovirus (preparation of a recombinant baculovirus can be found in the standard text (Bac-to-Bac Baculovirus Expression System (GIBCO BRL)). The cloning of the other receptor tyrosine kinases and preparation of the recombinant baculovirus solutions were performed using a cytoplasmic fragment starting from Lys791 (VEGFR2, Genbank Accession No. L04947), a cytoplasmic fragment starting from Lys398 (FGFR1, Genbank Accession No. X52833) and a cytoplasmic fragment starting from Lys558 (PDGFRβ, Genbank Accession No. M21616) in stead of HGFR in the above method. EGFR was purchased from Sigma (Production No. E-2645).
To the suspension of Sf9 cells (3×10^8 cells) in SF-900II medium (purchased from Invitrogen) containing 2% FBS was added a solution of HGFR transfected baculovirus above (4 ml), followed by a shaking culture at 27° C. for 48 hrs. The cells infected with the HGFR transfected baculovirus were centrifuged at 1,000 rpm, 4° C. for 5 min to remove the supernatant. The precipitated infected cells were suspended in 80 ml of ice-cold PBS, and centrifuged at 1,000 rpm, 4° C. for 5 min to remove the supernatant. The precipitated infected cells were suspended in 40 ml of ice-cold Lysis Buffer (50 mM Tris-HCl (pH 8.5), 5 mM 2-mercaptoethanol, 100 mM KCl, 1 mM PMSF and 1% (v/v) NP-40). The suspension was centrifuged at 12,000 rpm, 4° C. for 30 min to provide a supernatant.
The supernatant was loaded onto an Ni-NTA agarose column (3 ml, purchased from Qiagen) equilibrated with 30 ml of Buffer A (20 mM Tris-HCl (pH 8.5), 5 mM 2-mercaptoethanol, 500 mM KCl, 20 mM imidazole and 10% (v/v) glycerol). The column was washed with 30 ml of Buffer A, 6 ml of Buffer B (20 mM Tris-HCl (pH 8.5), 5 mM 2-mercaptoethanol, 1 M KCl, and 10% (v/v) glycerol) and 6 ml of Buffer A in this order. Then, the column was eluted with 6 ml of Buffer C (20 mM Tris-HCl (pH 8.5), 5 mM 2-mercaptoethanol, 100 mM KCl, 100 mM imidazole, and 10% (v/v) glycerol) to provide a fraction. The fraction was entrapped in a dialysis membrane (purchased from Spectrum Laboratories), dialyzed at 4° C. overnight with 1 L of dialysis buffer (20 mM Tris-HCl (pH 7.5), 10% (v/v) glycerol, 1 mM dithiothreitol, 0.1 mM Na3VO4 and 0.1 mM EGTA), and stored at −80° C. until used. An aliquot of the dialyzed fraction was subjected to SDS electrophoresis, and then a recombinant protein (His6-HGFR, the HGFR cytoplasmic domain fused with six histidine at the N terminus) detected at a molecular weight of about 60 kDa when stained with Coomassie Brilliant Blue, was determined with regard to protein content using BSA (purchased from Sigma) as a standard. The VEGFR2 cytoplasmic domain, the FGFR1 cytoplasmic domain, and the PDGFRβ cytoplasmic domain were fused with six histidine at the N terminus by the similar method to produce respective recombinant proteins (His6-VEGFR2, His6-FGFR1, and His6-PDGFRβ). […]

T1 sequence (P08581 956-1390 limits assumed): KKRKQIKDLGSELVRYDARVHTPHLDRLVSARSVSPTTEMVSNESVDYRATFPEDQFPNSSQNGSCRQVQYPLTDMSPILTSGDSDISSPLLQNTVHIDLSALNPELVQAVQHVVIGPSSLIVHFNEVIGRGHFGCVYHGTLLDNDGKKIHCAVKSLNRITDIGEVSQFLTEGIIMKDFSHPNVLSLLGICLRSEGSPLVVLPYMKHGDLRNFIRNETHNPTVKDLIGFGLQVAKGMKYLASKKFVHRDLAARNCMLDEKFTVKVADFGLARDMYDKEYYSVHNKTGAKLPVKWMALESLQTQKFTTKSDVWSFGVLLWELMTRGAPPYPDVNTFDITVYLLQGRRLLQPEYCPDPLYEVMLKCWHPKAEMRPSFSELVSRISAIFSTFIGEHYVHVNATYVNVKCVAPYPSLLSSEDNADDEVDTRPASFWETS

IC50 [nM]	Compound
30	O=C(Cc1ccc(F)cc1)NC(=S)Nc1ccc(Oc2cc(NC(=O)N3CCOCC3)ncn2)c(F)c1 [Example 4, Morpholine-4-carboxylic acid [6-[2-fluoro-4-{3-[2-(4-fluorophenyl)acetyl]thioureido}phenoxy)pyrimidin-4-yl]amide]
60	O=C(Cc1ccc(F)cc1)NC(=S)Nc1ccc(Oc2cc(NC(=O)N3CCCCC3)ncn2)c(F)c1 [Example 6, Piperidine-1-carboxylic acid [6-(2-fluoro-4-{3-[2-(4-fluorophenyl)acetyl]thioureido}phenoxy)pyrimidin-4-yl]amide]
18	CN(C)C(=O)Nc1cc(Oc2ccc(NC(=S)NC(=O)Cc3ccc(F)cc3)cc2F)ncn1 [Example 7, 3-[6-(2-Fluoro-4-{3-[2-(4-fluorophenyl)acetyl]thioureido}phenoxy)pyrimidin-4-yl]-1,1-dimethylurea]
83	O=C(Cc1ccccc1)NC(=S)Nc1ccc(Oc2cc(NC(=O)N3CCC(N4CCCC4)CC3)ncn2)c(F)c1 [Example 8, 4-(Pyrrolidin-1-yl)piperidine-1-carboxylic acid {6-[2-fluoro-4-(3-phenylacetylthioureido)phenoxy]pyrimidin-4-yl}amide]
56	CN(C)C(=O)Nc1cc(Oc2ccc(NC(=S)NC(=O)CC3CCCCC3)cc2F)ccn1 [Example 16, 2-[(Dimethylamino)carbonylamino]-4-{2-fluoro-4-[3-(2-cyclohexylacetylthio)ureido]phenoxy}pyridine]
26	CN(C)C1CCN(C(=O)Nc2cc(Oc3ccc(NC(=S)NC(=O)Cc4ccccc4)cc3F)ccn2)CC1 [Example 38, 2-{[4-(Dimethylamino)piperidin-1-yl]carbonylamino}-4-{2-fluoro-4-[3-(2-phenylacetyl)thioureido]phenoxy}pyridine]
50	O=C(Cc1ccccc1)NC(=S)Nc1ccc(Oc2ccnc(NC(=O)N3CCC(N4CCC4)CC3)c2)c(F)c1 [Example 39, 2-{[4-(Azetidin-1-yl)piperidin-1-yl]carbonylamino}-4-{2-fluoro-4-[3-(2-phenylacetyl)thioureido]phenoxy}pyridine]
45	O=C(Cc1ccccc1)NC(=O)Nc1ccc(Oc2cc(NC(=O)N3CCCC3)ncn2)c(F)c1 [Example 46, Pyrrolidine-1-carboxylic acid {6-[2-fluoro-4-(3-phenylacetylureido)phenoxy]pyrimidin-4-yl}amide]
100	O=C(Cc1ccccc1)NC(=O)Nc1ccc(Oc2ccnc(NC(=O)N3CCCC3)c2)cc1Cl [Example 47, Pyrrolidine-1-carboxylic acid {4-[3-chloro-4-(3-phenylacetylureido)phenoxy]pyridin-2-yl}amide]
210	CCN(CC)CCCN(C)C(=O)Nc1cc(Oc2ccc(NC(=O)NC(=O)Cc3ccccc3)cc2F)ccn1 [Example 49, 1-(3-Diethylaminopropyl)-3-{4-[2-fluoro-4-(3-phenylacetylureido)phenoxy]pyridin-2-yl}-1-methylurea]
18	CN(C)C(=O)Nc1cc(Oc2ccc(NC(=O)NC(=O)Cc3ccc(F)cc3)cc2F)ncn1 [Example 51, 3-[6-(2-Fluoro-4-{3-[2-(4-fluorophenyl)acetyl]ureido}phenoxy)pyrimidin-4-yl]-1,1-dimethylurea]
43	CN(C)C(=O)Nc1cc(Oc2ccc(NC(=O)NC(=O)Cc3ccccc3)c(F)c2)ccn1 [Example 54, 3-{4-[3-Fluoro-4-(3-phenylacetylureido)phenoxy]pyridin-2-yl}-1,1-dimethylurea]
48	O=C(CC(=O)Nc1ccc(F)cc1F)Nc1ccc(Oc2ccnc(NC(=O)N3CCCC3)c2)c(F)c1 [Example 57, N-(3-Fluoro-4-{2-[(pyrrolidine-1-carbonyl)amino]pyridin-4-yloxy}phenyl)-N′-(2,4-difluorophenyl)malonamide]
100	O=C(CC(=O)Nc1c(F)cccc1F)Nc1ccc(Oc2ccnc(NC(=O)N3CCCC3)c2)c(F)c1 [Example 59, N-(2,6-Difluorophenyl)-N′-(3-fluoro-4-{2-[(pyrrolidine-1-carbonyl)amino]pyridin-4-yloxy}phenyl)malonamide]
49	COc1ccccc1NC(=O)CC(=O)Nc1ccc(Oc2ccnc(NC(=O)N3CCCC3)c2)c(F)c1 [Example 60, N-(2-methoxyphenyl)-N′-(3-fluoro-4-{2-[(pyrrolidine-1-carbonyl)amino]pyridin-4-yloxy}phenyl)malonamide]
< 30	O=C(CC(=O)NC1CCCCCC1)Nc1ccc(Oc2ccnc(NC(=O)N3CCCC3)c2)c(F)c1 [Example 61, N-Cycloheptyl-N′-(3-fluoro-4-{2-[(pyrrolidine-1-carbonyl)amino]pyridin-4-yloxy}phenyl)malonamide]
59	O=C(CC(=O)Nc1ccc(Oc2ccnc(NC(=O)N3CCC3)c2)cc1Cl)Nc1ccc(F)cc1 [Example 64, N-(2-Chloro-4-{2-[(azetidine-1-carbonyl)amino]pyridin-4-yloxy}phenyl)-N′-(4-fluorophenyl)malonamide]
87	O=C(CC(=O)Nc1ccc(Oc2ccnc(NC(=O)N3CCCCC3)c2)cc1Cl)Nc1ccc(F)cc1 [Example 65, N-(2-Chloro-4-{2-[(piperidine-1-carbonyl)amino]pyridin-4-yloxy}phenyl)-N′-(4-fluorophenyl)malonamide]
67	O=C(CC(=O)Nc1ccc(Oc2ccnc(NC(=O)N3CCCC3)c2)c(Cl)c1)Nc1ccc(F)cc1 [Example 67, N-(3-Chloro-4-{2-[(pyrrolidine-1-carbonyl)amino]pyridin-4-yloxy}phenyl)-N′-(4-fluorophenyl)malonamide]
25	O=C(CC(=O)Nc1ccc(Oc2ccnc(NC(=O)N3CCOCC3)c2)cc1)Nc1ccc(F)cc1 [Example 71, N-(4-Fluorophenyl)-N′-(4-{2-[(morpholine-4-carbonyl)amino]pyridin-4-yloxy}phenyl)malonamide]
33	CC(=O)Nc1cc(Oc2ccc(NC(=O)CC(=O)Nc3ccc(F)cc3)c(F)c2)ccn1 [Example 74, N-(4-Fluorophenyl)-N′-[4-(2-acetylaminopyridin-4-yloxy)-2-fluorophenyl]malonamide]
54	CCC(=O)Nc1cc(Oc2ccc(NC(=O)CC(=O)Nc3ccc(F)cc3)c(F)c2)ccn1 [Example 75, N-(4-Fluorophenyl)-N′-[4-(2-propionylaminopyridin-4-yloxy)-2-fluorophenyl]malonamide]
100	CC(C)C(=O)Nc1cc(Oc2ccc(NC(=O)CC(=O)Nc3ccc(F)cc3)c(F)c2)ccn1 [Example 76, N-(4-Fluorophenyl)-N′-[4-(2-isobutylylaminopyridin-4-yloxy)-2-fluorophenyl]malonamide]
130	O=C(CC(=O)Nc1ccc(Oc2ccnc(NC(=O)N3CCC(N4CCCCC4)CC3)c2)cc1F)Nc1ccc(F)cc1 [Example 78, N-(4-Fluorophenyl)-N′-{2-fluoro-4-[({[4-(piperidin-1-yl)piperidin-1-yl]carbonyl}amino)pyridin-4-yloxy]phenyl}malonamide]
82	CCN(CC)CCCN(C)C(=O)Nc1cc(Oc2ccc(NC(=O)CC(=O)Nc3ccc(F)cc3)c(F)c2)ccn1 [Example 83]
12	CN(C)C(=O)Nc1cc(Oc2ccc(NC(=O)CC(=O)Nc3ccc(F)cc3)c(F)c2)ccn1 [Example 84, N-{4-[2-(3,3-Dimethylureido)pyridin-4-yloxy]-2-fluorophenyl}-N′-(4-fluorophenyl)malonamide]
